Source: ChEMBL document CHEMBL3588822, “Synthetic 1,2,3-triazole-linked glycoconjugates bind with high affinity to human galectin-3” (Bioorg Med Chem, 2015)

What was measured:
[1] = biological target: T1, Galectin-3 (Homo sapiens, UniProt P17931); assay: Inhibition of human recombinant wild type galectin 3 after 60 mins by surface plasmon resonance immunosensor assay
[2] = biological target: T1, Galectin-3; assay: Inhibition of human recombinant wild type galectin 3 first carbohydrate recognition domain after 60 mins by surface plasmon resonance immunosensor assay
[3] = biological target: T1, Galectin-3; assay: Inhibition of human recombinant wild type galectin 3 second carbohydrate recognition domain after 60 mins by surface plasmon resonance immunosensor assay

T1 sequence (P17931 whole entry, the tested form may be a part): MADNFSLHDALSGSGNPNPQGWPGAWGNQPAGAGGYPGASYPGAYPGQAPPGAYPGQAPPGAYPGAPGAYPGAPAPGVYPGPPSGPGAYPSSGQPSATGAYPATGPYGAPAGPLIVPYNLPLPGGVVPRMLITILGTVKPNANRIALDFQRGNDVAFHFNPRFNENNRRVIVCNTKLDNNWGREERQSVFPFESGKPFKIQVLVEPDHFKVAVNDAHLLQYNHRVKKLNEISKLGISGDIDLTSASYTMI

Compound | Kd [1] [µM] | Kd [2] [µM] | Kd [3] [µM]
CO[C@H]1O[C@H](CO)[C@H](O)[C@H](OCc2cn([C@@H](Cc3ccccc3)C(=O)O)nn2)[C@H]1O | 7.96 | – | –
CO[C@H]1O[C@H](CO)[C@H](O)[C@H](OCc2cn([C@@H](Cc3ccc(O)cc3)C(=O)O)nn2)[C@H]1O | 19.9 | – | –
OC[C@H]1O[C@@H](O[C@H]2[C@H](O)[C@@H](O)[C@H](OCCOCCOCCn3cc(CO[C@@H]4O[C@H](CO)[C@@H](O[C@@H]5O[C@H](CO)[C@H](O)[C@H](O)[C@H]5O)[C@H](O)[C@H]4O)nn3)O[C@@H]2CO)[C@H](O)[C@@H](O)[C@H]1O | – | 0.5 | 19

Now from value to compound:

Kd [1] [µM] | Kd [2] [µM] | Kd [3] [µM] | Compound
88.2 | – | – | CO[C@H]1O[C@H](CO)[C@H](O)[C@H](OCc2cn([C@H](C(=O)O)[C@@H](C)O)nn2)[C@H]1O
28.1 | – | – | CO[C@H]1O[C@H](CO)[C@H](O)[C@H](OCc2cn([C@@H](Cc3cc4ccccc4[nH]3)C(=O)O)nn2)[C@H]1O
4.56 | – | – | CO[C@H]1O[C@H](CO)[C@H](O)[C@H](OCc2cn([C@@H](CCCCN)C(=O)O)nn2)[C@H]1O
11.1 | – | – | CO[C@H]1O[C@H](CO)[C@H](O)[C@H](OCc2cn([C@@H](CC(=O)O)C(=O)O)nn2)[C@H]1O
